Results as given in the supplement of paper PMC10307832.

Columns and labels:
Assay in all cases: relative viability (nuclei count vs DMSO), 5 days (fraction); higher = more cells survive
ChaGo-K-1 = test system: ChaGo-K-1
Procedure, shortened: (§1)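 Relative viability is defined as nuclei in treated wells over nuclei in vehicle wells. Duplicate plates were run and medians reported. Lung cancer cell lines in 1536-well plates were dosed by pin tool one day after seeding, with one drug or with a fixed anchor-drug dose plus five library-drug doses (not always all listed) in √10 steps, and nuclei were counted after 5 days.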

EMC-BAC-2 = test system: EMC-BAC-2
Procedure, shortened: as §1

EPLC-272H = test system: EPLC-272H
Procedure, shortened: as §1

HCC-78 = test system: HCC-78
Procedure, shortened: as §1

HCC-827 = test system: HCC-827
Procedure, shortened: as §1

LCLC-103H = test system: LCLC-103H
Procedure, shortened: as §1

LK-2 = test system: LK-2
Procedure, shortened: as §1

LOU-NH91 = test system: LOU-NH91
Procedure, shortened: as §1

LU99A = test system: LU99A
Procedure, shortened: as §1

LXF-289 = test system: LXF-289
Procedure, shortened: as §1

NCI-H1666 = test system: NCI-H1666
Procedure, shortened: as §1

NCI-H1975 = test system: NCI-H1975
Procedure, shortened: as §1

NCI-H2085 = test system: NCI-H2085
Procedure, shortened: as §1

NCI-H2126 = test system: NCI-H2126
Procedure, shortened: as §1

NCI-H23 = test system: NCI-H23
Procedure, shortened: as §1

NCI-H2405 = test system: NCI-H2405
Procedure, shortened: as §1

NCI-H3122 = test system: NCI-H3122
Procedure, shortened: as §1

NCI-H322M = test system: NCI-H322M
Procedure, shortened: as §1

RERF-LC-KJ = test system: RERF-LC-KJ
Procedure, shortened: as §1

SK-LU-1 = test system: SK-LU-1
Procedure, shortened: as §1

SW 1573 = test system: SW 1573
Procedure, shortened: as §1

SW 900 = test system: SW 900
Procedure, shortened: as §1

With `NC(=O)Nc1cc(-c2cccc(F)c2)sc1C(=O)N[C@H]1CCCNC1` [AZD7762] + CC(=O)c1c(C)c2cnc(Nc3ccc(N4CCNCC4)cn3)nc2n(C2CCCC2)c1=O [Palbociclib] (partner 0.5 µM) the relative viability (ChaGo-K-1; first compound 0.01 µM) was 1.01, the relative viability (ChaGo-K-1; first compound 0.03162 µM) was 0.953 and the relative viability (ChaGo-K-1; first compound 0.1 µM) was 0.958. For the same molecule, the relative viability (ChaGo-K-1; first compound 0.3162 µM) was 0.932, the relative viability (ChaGo-K-1; first compound 1 µM) was 1.03 and the relative viability (EMC-BAC-2; first compound 0.01 µM) was 0.555. For the same molecule, the relative viability (EMC-BAC-2; first compound 0.03162 µM) was 0.527, the relative viability (EMC-BAC-2; first compound 0.1 µM) was 0.537 and the relative viability (EMC-BAC-2; first compound 0.3162 µM) was 0.554. It also gave a relative viability (EMC-BAC-2; first compound 1 µM) of 0.541, a relative viability (EPLC-272H; first compound 0.01 µM) of 0.325 and a relative viability (EPLC-272H; first compound 0.03162 µM) of 0.297. It also gave a relative viability (EPLC-272H; first compound 0.1 µM) of 0.351, a relative viability (EPLC-272H; first compound 0.3162 µM) of 0.307 and a relative viability (EPLC-272H; first compound 1 µM) of 0.362. The relative viability (HCC-78; first compound 0.01 µM) was 0.444, the relative viability (HCC-78; first compound 0.03162 µM) was 0.461 and the relative viability (HCC-78; first compound 0.1 µM) was 0.444. The relative viability (HCC-78; first compound 0.3162 µM) was 0.518, the relative viability (HCC-78; first compound 1 µM) was 0.454 and the relative viability (HCC-827; first compound 0.01 µM) was 0.544. The relative viability (HCC-827; first compound 0.03162 µM) was 0.469, the relative viability (HCC-827; first compound 0.1 µM) was 0.486 and the relative viability (HCC-827; first compound 0.3162 µM) was 0.498. The relative viability (HCC-827; first compound 1 µM) was 0.303, the relative viability (LCLC-103H; first compound 0.01 µM) was 0.438 and the relative viability (LCLC-103H; first compound 0.03162 µM) was 0.479. The relative viability (LCLC-103H; first compound 0.1 µM) was 0.639, the relative viability (LCLC-103H; first compound 0.3162 µM) was 0.449 and the relative viability (LCLC-103H; first compound 1 µM) was 0.544. It also gave a relative viability (LK-2; first compound 0.01 µM) of 0.6, a relative viability (LK-2; first compound 0.03162 µM) of 0.779 and a relative viability (LK-2; first compound 0.1 µM) of 0.742. For the same molecule, the relative viability (LK-2; first compound 0.3162 µM) was 0.612, the relative viability (LK-2; first compound 1 µM) was 0.572 and the relative viability (LOU-NH91; first compound 0.01 µM) was 0.528. It also gave a relative viability (LOU-NH91; first compound 0.03162 µM) of 0.525, a relative viability (LOU-NH91; first compound 0.1 µM) of 0.542 and a relative viability (LOU-NH91; first compound 0.3162 µM) of 0.609. It also gave a relative viability (LOU-NH91; first compound 1 µM) of 0.503, a relative viability (LU99A; first compound 0.01 µM) of 0.469 and a relative viability (LU99A; first compound 0.03162 µM) of 0.427. It also gave a relative viability (LU99A; first compound 0.1 µM) of 0.438, a relative viability (LU99A; first compound 0.3162 µM) of 0.408 and a relative viability (LU99A; first compound 1 µM) of 0.354. For the same molecule, the relative viability (LXF-289; first compound 0.01 µM) was 0.569, the relative viability (LXF-289; first compound 0.03162 µM) was 0.689 and the relative viability (LXF-289; first compound 0.1 µM) was 0.628. For the same molecule, the relative viability (LXF-289; first compound 0.3162 µM) was 0.679, the relative viability (LXF-289; first compound 1 µM) was 0.668 and the relative viability (NCI-H1666; first compound 0.01 µM) was 0.609. The relative viability (NCI-H1666; first compound 0.03162 µM) was 0.728, the relative viability (NCI-H1666; first compound 0.1 µM) was 0.701 and the relative viability (NCI-H1666; first compound 0.3162 µM) was 0.565. For the same molecule, the relative viability (NCI-H1666; first compound 1 µM) was 0.65, the relative viability (NCI-H1975; first compound 0.01 µM) was 0.519 and the relative viability (NCI-H1975; first compound 0.03162 µM) was 0.549. It also gave a relative viability (NCI-H1975; first compound 0.1 µM) of 0.585, a relative viability (NCI-H1975; first compound 0.3162 µM) of 0.352 and a relative viability (NCI-H1975; first compound 1 µM) of 0.357. It also gave a relative viability (NCI-H2085; first compound 0.01 µM) of 0.478, a relative viability (NCI-H2085; first compound 0.03162 µM) of 0.458 and a relative viability (NCI-H2085; first compound 0.1 µM) of 0.494. The relative viability (NCI-H2085; first compound 0.3162 µM) was 0.483, the relative viability (NCI-H2085; first compound 1 µM) was 0.544 and the relative viability (NCI-H2126; first compound 0.01 µM) was 0.353. It also gave a relative viability (NCI-H2126; first compound 0.03162 µM) of 0.363, a relative viability (NCI-H2126; first compound 0.1 µM) of 0.346 and a relative viability (NCI-H2126; first compound 0.3162 µM) of 0.369. It also gave a relative viability (NCI-H2126; first compound 1 µM) of 0.397, a relative viability (NCI-H23; first compound 0.01 µM) of 0.58 and a relative viability (NCI-H23; first compound 0.03162 µM) of 0.629. It also gave a relative viability (NCI-H23; first compound 0.1 µM) of 0.73, a relative viability (NCI-H23; first compound 0.3162 µM) of 0.456 and a relative viability (NCI-H23; first compound 1 µM) of 0.281. The relative viability (NCI-H2405; first compound 0.01 µM) was 0.516, the relative viability (NCI-H2405; first compound 0.03162 µM) was 0.538 and the relative viability (NCI-H2405; first compound 0.1 µM) was 0.465. The relative viability (NCI-H2405; first compound 0.3162 µM) was 0.507, the relative viability (NCI-H2405; first compound 1 µM) was 0.302 and the relative viability (NCI-H3122; first compound 0.01 µM) was 0.167. For the same molecule, the relative viability (NCI-H3122; first compound 0.03162 µM) was 0.206, the relative viability (NCI-H3122; first compound 0.1 µM) was 0.191 and the relative viability (NCI-H3122; first compound 0.3162 µM) was 0.199. The relative viability (NCI-H3122; first compound 1 µM) was 0.191, the relative viability (NCI-H322M; first compound 0.01 µM) was 0.477 and the relative viability (NCI-H322M; first compound 0.03162 µM) was 0.517. The relative viability (NCI-H322M; first compound 0.1 µM) was 0.465, the relative viability (NCI-H322M; first compound 0.3162 µM) was 0.523 and the relative viability (NCI-H322M; first compound 1 µM) was 0.441. The relative viability (RERF-LC-KJ; first compound 0.01 µM) was 1.09, the relative viability (RERF-LC-KJ; first compound 0.03162 µM) was 1.07 and the relative viability (RERF-LC-KJ; first compound 0.1 µM) was 1.06. It also gave a relative viability (RERF-LC-KJ; first compound 0.3162 µM) of 1.01, a relative viability (RERF-LC-KJ; first compound 1 µM) of 0.965 and a relative viability (SK-LU-1; first compound 0.01 µM) of 0.364. It also gave a relative viability (SK-LU-1; first compound 0.03162 µM) of 0.418, a relative viability (SK-LU-1; first compound 0.1 µM) of 0.365 and a relative viability (SK-LU-1; first compound 0.3162 µM) of 0.232. For the same molecule, the relative viability (SK-LU-1; first compound 1 µM) was 0.232, the relative viability (SW 1573; first compound 0.01 µM) was 0.424 and the relative viability (SW 1573; first compound 0.03162 µM) was 0.453. It also gave a relative viability (SW 1573; first compound 0.1 µM) of 0.466, a relative viability (SW 1573; first compound 0.3162 µM) of 0.377 and a relative viability (SW 1573; first compound 1 µM) of 0.314. It also gave a relative viability (SW 900; first compound 0.01 µM) of 0.597, a relative viability (SW 900; first compound 0.03162 µM) of 0.688 and a relative viability (SW 900; first compound 0.1 µM) of 0.583. For the same molecule, the relative viability (SW 900; first compound 0.3162 µM) was 0.444 and the relative viability (SW 900; first compound 1 µM) was 0.504.
